The values that follow come from ChEMBL document CHEMBL1126738, “(3SR,4aRS,6RS,8aRS)-6-[2-(1H-tetrazol-5-yl)ethyl]decahydroisoquinoline-3 - carboxylic acid: a structurally novel, systemically active, competitive AMPA receptor antagonist” (J Med Chem, 1993).

As usually defined, the IC50 is the point on the concentration scale where inhibition reaches its midpoint. A lower IC50 goes with greater potency in that assay.

In the assay the target is Glutamate [NMDA] receptor. The assay is described as follows: Inhibitory activity against NMDA receptor using [3H]-CGS- 19755 as radioligand. The format is protein-complex assay.

Take `O=C(O)[C@@H]1C[C@H]2C[C@@H](CCc3nn[nH]n3)CC[C@H]2CN1` [TEZAMPANEL ANHYDROUS]: the IC50 was 12.1 µM.
